Assay results from patent publication US20230190754A1, “Therapeutic combinations for the treatment of Progressive Fibrosing interstitial lung diseases” (Boehringer Ingelheim International GmbH, priority 2021, published 2023).
Marks after values point to notes of the source that are not given here.

Test system: IPF patients
Experiment: Phase II clinical trial in IPF patients: Treatment Emergent Adverse Events (safety/tolerability), up to 13 weeks
[1] = Non-AF-group, 18 mg b.i.d., listed as Compound of Formula III
[2] = Non-AF-group, 18 mg b.i.d., listed as active agent

## [O-][S@+]1CCc2nc(N3CCC(c4ncc(Cl)cn4)CC3)nc(NC3(CO)CCC3)c21 [Comp. of form. III]
Non-AF+AF total, 18 mg b.i.d.
  AE: Metabolism and nutrition disorders, patients n: 4
  AE: Musculoskeletal and connective tissue disorders, patients %: (5.2) %
  AE: Musculoskeletal and connective tissue disorders, patients n: 5
  AE: Nasopharyngitis, patients %: (4.1) %
  AE: Nasopharyngitis, patients n: 4
  AE: Nausea, patients %: (3.1) %
  AE: Nausea, patients n: 3
  AE: Nervous system disorders, patients %: (13.4) %
  AE: Nervous system disorders, patients n: 13
  AE: Oedema peripheral, patients %: (2.1) %
  AE: Oedema peripheral, patients n: 2
  AE: Pyrexia, patients %: (2.1) %
  AE: Pyrexia, patients n: 2
  AE: Respiratory, thoracic and mediastinal disorders, patients %: (14.4) %
  AE: Respiratory, thoracic and mediastinal disorders, patients n: 14
  AE: Rhinorrhoea, patients %: (2.1) %
  AE: Rhinorrhoea, patients n: 2
  AE: Vomiting, patients %: (3.1) %
  AE: Vomiting, patients n: 3
  AE: Weight decreased, patients %: (3.1) %
  AE: Weight decreased, patients n: 3
  AEs leading to discontinuation of trial drug, patients %: (13.4) %
  AEs leading to discontinuation of trial drug, patients n: 13
  Any AE, patients n: 67
  Diarrhoea leading to discontinuation of trial treatment, patients %: (3.1) %
  Diarrhoea leading to discontinuation of trial treatment, patients n: 3
  Dyspepsia leading to discontinuation of trial treatment, patients %: (1.0) %
  Dyspepsia leading to discontinuation of trial treatment, patients n: 1
  Gastrointestinal disorders leading to discontinuation of trial treatment, patients %: (5.2) %
  Gastrointestinal disorders leading to discontinuation of trial treatment, patients n: 5
  SAE: COPD, patients %: (1.0) %
  SAE: COPD, patients n: 1
  SAE: Cardiac disorders, patients %: (1.0) %
  SAE: Cardiac disorders, patients n: 1
  SAE: Cardiac failure congestive, patients %: (1.0) %
  SAE: Cardiac failure congestive, patients n: 1
  SAE: Condition aggravated, patients %: (2.1) %
  SAE: Condition aggravated, patients n: 2
  SAE: Covid-19 pneumonia, patients %: (1.0) %
  SAE: Covid-19 pneumonia, patients n: 1
  SAE: Dyspnoea, patients %: (1.0) %
  SAE: Dyspnoea, patients n: 1
  SAE: General disorders and administration side conditions, patients %: (2.1) %
  SAE: General disorders and administration side conditions, patients n: 2
  SAE: Infections and Infestations, patients %: (1.0) %
  SAE: Infections and Infestations, patients n: 1
  SAE: Lung neoplasm, patients %: (1.0) %
  SAE: Lung neoplasm, patients n: 1
  SAE: Neoplasms benign, malignant and unspecified, patients %: (1.0) %
  SAE: Neoplasms benign, malignant and unspecified, patients n: 1
  SAE: Nervous system disorders, patients %: (1.0) %
  SAE: Nervous system disorders, patients n: 1
  SAE: Peripheral nerve paresis, patients %: (1.0) %
  SAE: Peripheral nerve paresis, patients n: 1
  SAE: Respiratory, thoracic and mediastinal disorders, patients %: (1.0) %
  SAE: Respiratory, thoracic and mediastinal disorders, patients n: 1
  SAE: Vascular disorders, patients %: (1.0) %
  SAE: Vascular disorders, patients n: 1
  SAE: Vasculitis, patients %: (1.0) %
  SAE: Vasculitis, patients n: 1
  Serious AEs (patients with ≥1 SAE), patients %: (6.2) %
  Serious AEs (patients with ≥1 SAE), patients n: 6
  Severe AEs, patients %: (4.1) %
  Severe AEs, patients n: 4
  Vomiting leading to discontinuation of trial treatment, patients %: (1.0) %
  Vomiting leading to discontinuation of trial treatment, patients n: 1
Non-AF+AF total, 18 mg b.i.d., listed as Compound of formula III
  Any AE, patients %: (69.1) %
Non-AF+AF total, 18 mg b.i.d., listed as active agent
  Any AE, patients %: 67%
Non-AF, N = 48
  Abdominal Pain, %: (2.1) %
  Asthenia, %: (6.3) %
  Bronchitis, %: (2.1) %
  Constipation, %: (2.1) %
  Cough, %: (6.3) %
  Decreased appetite, %: (2.1) %
  Diarrhoea, %: (16.7) %
  Dizziness, %: (2.1) %
  Dyspepsia, %: (6.3) %
  Dyspnoea, %: (6.3) %
  Fatigue, %: (4.2) %
  Flatulence, %: (6.3) %
  Gastrointestinal disorders, %: (27.1) %
  General Disorders and Administration Side conditions, %: (18.8) %
  Headache, %: (6.3) %
  Infections and infestations, %: (14.6) %
  Investigations, %: (10.4) %
  Metabolism and nutrition disorders, %: (2.1) %
  Musculoskeletal and connective tissue disorders, %: (4.2) %
  Nausea, %: (4.2) %
  Nervous system disorders, %: (8.3) %
  Oedema peripheral, %: (2.1) %
  Pyrexia, %: (2.1) %
  Respiratory, thoracic and mediastinal disorders, %: (16.7) %
  Rhinorrhoea, %: (2.1) %
  Vomiting, %: (2.1) %
  Weight decreased, %: (4.2) %
Non-AF-group, 18 mg b.i.d.
  AE resulting in death, patients %: (2.1) %
  AE resulting in death, patients n: 1
  AE: Abdominal pain, patients %: (2.1) %
  AE: Abdominal pain, patients n: 1
  AE: Asthenia, patients %: (6.3) %
  AE: Asthenia, patients n: 3
  AE: Bronchitis, patients %: (2.1) %
  AE: Bronchitis, patients n: 1
  AE: Constipation, patients %: (2.1) %
  AE: Constipation, patients n: 1
  AE: Cough, patients %: (6.3) %
  AE: Cough, patients n: 3
  AE: Decreased appetite, patients %: (2.1) %
  AE: Decreased appetite, patients n: 1
  AE: Diarrhoea, patients %: 16.7%
  AE: Diarrhoea, patients n: 8
  AE: Dizziness, patients %: (2.1) %
  AE: Dizziness, patients n: 1
  AE: Dyspepsia, patients %: (6.3) %
  AE: Dyspepsia, patients n: 3
  AE: Dyspnoea, patients %: (6.3) %
  AE: Dyspnoea, patients n: 3
  AE: Fatigue, patients %: (4.2) %
  AE: Fatigue, patients n: 2
  AE: Flatulence, patients %: (6.3) %
  AE: Flatulence, patients n: 3
  AE: Gastrointestinal disorders, patients %: (27.1) %
  AE: Gastrointestinal disorders, patients n: 13
  AE: General disorders and administration site conditions, patients %: (18.8) %
  AE: General disorders and administration site conditions, patients n: 9
  AE: Headache, patients %: (6.3) %
  AE: Headache, patients n: 3
  AE: Infections and infestations, patients %: (14.6) %
  AE: Infections and infestations, patients n: 7
  AE: Investigations, patients %: (10.4) %
  AE: Investigations, patients n: 5
  AE: Metabolism and nutrition disorders, patients %: (2.1) %
  AE: Metabolism and nutrition disorders, patients n: 1
  AE: Musculoskeletal and connective tissue disorders, patients %: (4.2) %
  AE: Musculoskeletal and connective tissue disorders, patients n: 2
  AE: Nausea, patients %: (4.2) %
  AE: Nausea, patients n: 2
  AE: Nervous system disorders, patients %: (8.3) %
  AE: Nervous system disorders, patients n: 4
  AE: Oedema peripheral, patients %: (2.1) %
  AE: Oedema peripheral, patients n: 1
  AE: Pyrexia, patients %: (2.1) %
  AE: Pyrexia, patients n: 1
  AE: Respiratory, thoracic and mediastinal disorders, patients %: (16.7) %
  AE: Respiratory, thoracic and mediastinal disorders, patients n: 8
  AE: Rhinorrhoea, patients %: (2.1) %
  AE: Rhinorrhoea, patients n: 1
  AE: Vomiting, patients %: (2.1) %
  AE: Vomiting, patients n: 1
  AE: Weight decreased, patients %: (4.2) %
  AE: Weight decreased, patients n: 2
  AEs leading to discontinuation of trial drug, patients %: (6.3) %
  AEs leading to discontinuation of trial drug, patients n: 3
  Any AE, patients n: 31
  Gastrointestinal disorders leading to discontinuation of trial treatment, patients n: 1
  SAE: COPD, patients %: (2.1) %
  SAE: COPD, patients n: 1
  SAE: Cardiac disorders, patients %: (2.1) %
  SAE: Cardiac disorders, patients n: 1
  SAE: Cardiac failure congestive, patients %: (2.1) %
  SAE: Cardiac failure congestive, patients n: 1
  SAE: Covid-19 pneumonia (fatal event), patients %: (2.1)* %
  SAE: Covid-19 pneumonia (fatal event), patients n: 1
  SAE: Dyspnoea, patients %: (2.1) %
  SAE: Dyspnoea, patients n: 1
  SAE: Infections and Infestations, patients %: (2.1) %
  SAE: Infections and Infestations, patients n: 1
  SAE: Lung neoplasm, patients %: (2.1) %
  SAE: Lung neoplasm, patients n: 1
  SAE: Neoplasms benign, malignant and unspecified, patients %: (2.1) %
  SAE: Neoplasms benign, malignant and unspecified, patients n: 1
  SAE: Respiratory, thoracic and mediastinal disorders, patients %: (2.1) %
  SAE: Respiratory, thoracic and mediastinal disorders, patients n: 1
  Serious AEs (patients with ≥1 SAE), patients %: (6.3) %
  Serious AEs (patients with ≥1 SAE), patients n: 3
  Severe AEs, patients %: (4.2) %
  Severe AEs, patients n: 2
  Vomiting leading to discontinuation of trial treatment, patients %: (2.1) %
  Vomiting leading to discontinuation of trial treatment, patients n: 1
[1]
  AE: Diarrhoea, patients %: (16.7) %
  Any AE, patients %: (64.6) %
  Gastrointestinal disorders leading to discontinuation of trial treatment, patients %: (2.1) %
[2]
  AE: Diarrhoea, patients %: 16.7%
  Any AE, patients %: 64.6%
  Gastrointestinal disorders leading to discontinuation of trial treatment, patients %: 2.1%
Total, N = 97
  Abdominal Pain, %: (2.1) %
  Arthralgia, %: (2.1) %
  Asthenia, %: (4.1) %
  Bronchitis, %: (2.1) %
  Condition aggravated, %: (2.1) %
  Constipation, %: (3.1) %
  Cough, %: (7.2) %
  Decreased appetite, %: (3.1) %
  Diarrhoea, %: (23.7) %
  Dizziness, %: (2.1) %
  Dyspepsia, %: (5.2) %
  Dyspnoea, %: (3.1) %
  Fatigue, %: (3.1) %
  Flatulence, %: (5.2) %
  Gastrointestinal disorders, %: (32.0) %
  General Disorders and Administration Side conditions, %: (16.5) %
  Headache, %: (6.2) %
  Infections and infestations, %: (14.4) %
  Investigations, %: (15.5) %
  Metabolism and nutrition disorders, %: (4.1) %
  Musculoskeletal and connective tissue disorders, %: (5.2) %
  Nasopharyngitis, %: (4.1) %
  Nausea, %: (3.1) %
  Nervous system disorders, %: (13.4) %
  Oedema peripheral, %: (2.1) %
  Pyrexia, %: (2.1) %
  Respiratory, thoracic and mediastinal disorders, %: (14.4) %
  Rhinorrhoea, %: (2.1) %
  Vomiting, %: (3.1) %
  Weight decreased, %: (3.1) %
